Laboratory results as given in ChEMBL document CHEMBL1201862, “PubChem BioAssay data set” (2004).
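Dose response: 5 concentrations. Exposure: 48 h. Format: 96-well plates. Endpoint: linear interpolation; highest concentration if not reached. GI50 is the concentration that inhibits growth by half.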 Calls of active or inactive are those of the source. Rule as the data show it: active = GI50 up to about 1.1 µM and inactive = higher.

How the values were obtained:
Assay in all cases: growth of human tumour cells (NCI), 48 h
786-0 = system: 786-0
A498 = system: A498
A549 = system: A549
ACHN = system: ACHN
BT-549 = system: BT-549
CAKI-1 = system: CAKI-1
CCRF-CEM = system: CCRF-CEM
COLO 205 = system: COLO 205
DU-145 = system: DU-145
EKVX = system: EKVX
HCC 2998 = system: HCC 2998
HCT-116 = system: HCT-116
HCT-15 = system: HCT-15
HL-60 = system: HL-60
HOP-62 = system: HOP-62
HOP-92 = system: HOP-92
HT-29 = system: HT-29
Hs-578T = system: Hs-578T
IGROV-1 = system: IGROV-1
K562 = system: K562
KM12 = system: KM12
LOX IMVI = system: LOX IMVI
M14 = system: M14
MCF7 = system: MCF7
MDA-MB-231 = system: MDA-MB-231
MDA-MB-435 = system: MDA-MB-435
MDA-N = system: MDA-N
MOLT-4 = system: MOLT-4
Malme-3M = system: Malme-3M
NCI-H226 = system: NCI-H226
NCI-H23 = system: NCI-H23
NCI-H460 = system: NCI-H460
NCI-H522 = system: NCI-H522
NCI/ADR-RES = system: NCI/ADR-RES
OVCAR-3 = system: OVCAR-3
OVCAR-4 = system: OVCAR-4
OVCAR-5 = system: OVCAR-5
OVCAR-8 = system: OVCAR-8
PC-3 = system: PC-3
RPMI-8226 = system: RPMI-8226
RXF 393 = system: RXF 393
SF-268 = system: SF-268
SF-295 = system: SF-295
SK-MEL-28 = system: SK-MEL-28
SK-MEL-2 = system: SK-MEL-2
SK-MEL-5 = system: SK-MEL-5
SK-OV-3 = system: SK-OV-3
SN12C = system: SN12C
SNB-19 = system: SNB-19
SR = system: SR
SW-620 = system: SW-620
TK-10 = system: TK-10
U-251 = system: U-251
UACC-257 = system: UACC-257
UACC-62 = system: UACC-62
UO-31 = system: UO-31
SF-539 = system: SF-539
T47D = system: T47D
SNB-75 = system: SNB-75

Measured: GI50

Nc1cc(C(=O)O)nc(O)n1
inactive: 786-0 > 100 µM | A498 > 100 µM | A549 > 100 µM | ACHN > 100 µM | BT-549 > 100 µM | CAKI-1 > 100 µM | CCRF-CEM > 100 µM | COLO 205 > 100 µM | DU-145 > 100 µM | EKVX > 100 µM | HCC 2998 > 100 µM | HCT-116 > 100 µM | HL-60 > 100 µM | HOP-62 > 100 µM | HOP-92 > 100 µM | HT-29 > 100 µM | Hs-578T > 100 µM | IGROV-1 > 100 µM | K562 > 100 µM | KM12 > 100 µM | LOX IMVI > 100 µM | M14 > 100 µM | MCF7 > 100 µM | MDA-MB-231 > 100 µM | MDA-MB-435 > 100 µM | MDA-N > 100 µM | MOLT-4 > 100 µM | Malme-3M > 100 µM | NCI-H226 > 100 µM | NCI-H23 > 100 µM | NCI-H460 > 100 µM | NCI-H522 > 100 µM | NCI/ADR-RES > 100 µM | OVCAR-3 > 100 µM | OVCAR-4 > 100 µM | OVCAR-5 > 100 µM | OVCAR-8 > 100 µM | PC-3 > 100 µM | RPMI-8226 > 100 µM | RXF 393 > 100 µM | SF-268 > 100 µM | SF-295 > 100 µM | SK-MEL-28 > 100 µM | SK-MEL-2 > 100 µM | SK-MEL-5 > 100 µM | SK-OV-3 > 100 µM | SN12C > 100 µM | SNB-19 > 100 µM | SR > 100 µM | SW-620 > 100 µM | TK-10 > 100 µM | U-251 > 100 µM | UACC-257 > 100 µM | UACC-62 > 100 µM | UO-31 > 100 µM
> 100 µM: HCT-15

O=C(NN1C(=O)CSC1c1ccco1)c1ccncc1 (centres undefined)
inactive: 786-0 > 100 µM | A498 > 100 µM | A549 > 100 µM | ACHN > 100 µM | BT-549 > 100 µM | CAKI-1 > 100 µM | CCRF-CEM > 100 µM | COLO 205 > 100 µM | DU-145 > 100 µM | EKVX > 100 µM | HCC 2998 > 100 µM | HCT-116 > 100 µM | HL-60 > 100 µM | HOP-62 > 100 µM | HOP-92 > 100 µM | HT-29 > 100 µM | IGROV-1 > 100 µM | K562 > 100 µM | KM12 > 100 µM | M14 > 100 µM | MCF7 > 100 µM | MDA-MB-231 > 100 µM | MDA-MB-435 > 100 µM | MDA-N > 100 µM | MOLT-4 > 100 µM | Malme-3M > 100 µM | NCI-H226 > 100 µM | NCI-H23 > 100 µM | NCI-H460 > 100 µM | NCI-H522 > 100 µM | NCI/ADR-RES > 100 µM | OVCAR-3 > 100 µM | OVCAR-4 > 100 µM | OVCAR-5 > 100 µM | OVCAR-8 > 100 µM | PC-3 > 100 µM | RPMI-8226 > 100 µM | RXF 393 > 100 µM | SF-268 > 100 µM | SF-295 > 100 µM | SF-539 > 100 µM | SK-MEL-28 > 100 µM | SK-MEL-2 > 100 µM | SK-MEL-5 > 100 µM | SK-OV-3 > 100 µM | SN12C > 100 µM | SNB-19 > 100 µM | SW-620 > 100 µM | T47D > 100 µM | TK-10 > 100 µM | U-251 > 100 µM | UACC-257 > 100 µM | UACC-62 > 100 µM | UO-31 > 100 µM
> 100 µM: HCT-15

COc1ccccc1/C=C1\SC(=S)N(/C=C2\C(=O)Oc3ccccc3C2=O)C1=O
active: CAKI-1 0.458 µM
inactive: 786-0 34.8 µM | A549 27.9 µM | ACHN 47.5 µM | BT-549 21.1 µM | CCRF-CEM 36.2 µM | COLO 205 24 µM | DU-145 33.3 µM | EKVX 24.1 µM | HCT-116 34.4 µM | HOP-92 18.4 µM | HT-29 38.7 µM | Hs-578T 33.5 µM | IGROV-1 36.6 µM | K562 36.6 µM | KM12 34.3 µM | LOX IMVI 34.9 µM | M14 36.2 µM | MCF7 35.5 µM | MDA-MB-231 23 µM | MDA-MB-435 25.6 µM | MDA-N 33.4 µM | MOLT-4 33.9 µM | Malme-3M 23.2 µM | NCI-H226 35.3 µM | NCI-H23 1.62 µM | NCI-H522 26.5 µM | NCI/ADR-RES 29.3 µM | OVCAR-3 19.8 µM | OVCAR-4 33.2 µM | OVCAR-5 59.8 µM | OVCAR-8 28.8 µM | PC-3 38.5 µM | SF-268 33.3 µM | SF-539 29 µM | SK-MEL-2 21.9 µM | SK-MEL-5 20.5 µM | SK-OV-3 23 µM | SNB-19 32.7 µM | SNB-75 22 µM | SW-620 43.2 µM | TK-10 28.1 µM | U-251 34.3 µM | UACC-257 22.9 µM | UACC-62 23.8 µM | UO-31 23.2 µM
28.1 µM: HCT-15

COC(=O)NC(=O)NC(Cc1ccccc1)NC(=O)OCc1ccccc1 (centres undefined)
> 100 µM: HCT-15
inactive: 786-0 37.8 µM | A498 30.3 µM | A549 97.7 µM | ACHN > 100 µM | BT-549 31.1 µM | CAKI-1 > 100 µM | CCRF-CEM > 100 µM | COLO 205 > 100 µM | DU-145 > 100 µM | EKVX > 100 µM | HCC 2998 > 100 µM | HCT-116 39.3 µM | HL-60 > 100 µM | HOP-62 47.2 µM | HOP-92 18.1 µM | HT-29 > 100 µM | IGROV-1 70.8 µM | K562 > 100 µM | KM12 > 100 µM | LOX IMVI > 100 µM | M14 > 100 µM | MCF7 > 100 µM | MDA-MB-231 18.5 µM | MDA-MB-435 > 100 µM | MDA-N > 100 µM | MOLT-4 > 100 µM | Malme-3M > 100 µM | NCI-H226 > 100 µM | NCI-H23 40.3 µM | NCI-H460 > 100 µM | NCI-H522 28.3 µM | NCI/ADR-RES > 100 µM | OVCAR-3 > 100 µM | OVCAR-4 > 100 µM | OVCAR-5 > 100 µM | OVCAR-8 74.1 µM | PC-3 > 100 µM | RPMI-8226 > 100 µM | RXF 393 20.5 µM | SF-268 48.1 µM | SF-295 35.5 µM | SF-539 19.6 µM | SK-MEL-28 > 100 µM | SK-MEL-2 63.2 µM | SK-MEL-5 > 100 µM | SK-OV-3 18 µM | SN12C > 100 µM | SNB-19 42.7 µM | SNB-75 20.2 µM | SR > 100 µM | SW-620 > 100 µM | T47D > 100 µM | TK-10 45.4 µM | U-251 44.1 µM | UACC-257 > 100 µM | UACC-62 > 100 µM | UO-31 30.9 µM

COc1ccc(/C=N/CCC/N=C/c2ccc(OC)cc2O)c(O)c1
37.5 µM: HCT-15
inactive: 786-0 76.6 µM | A498 > 100 µM | A549 > 100 µM | ACHN 48.6 µM | BT-549 48.9 µM | CCRF-CEM 29.6 µM | DU-145 37.8 µM | EKVX 29.3 µM | HCT-116 71.9 µM | HL-60 39.9 µM | HOP-62 > 100 µM | HOP-92 17.6 µM | HT-29 97.3 µM | Hs-578T 22 µM | IGROV-1 43.4 µM | K562 69 µM | KM12 47.4 µM | M14 75.3 µM | MCF7 55.7 µM | MDA-MB-231 38.7 µM | MDA-MB-435 46.1 µM | MOLT-4 49.1 µM | Malme-3M 23.8 µM | NCI-H226 16.7 µM | NCI-H23 > 100 µM | NCI-H460 > 100 µM | NCI-H522 > 100 µM | OVCAR-3 16 µM | OVCAR-4 36.8 µM | OVCAR-5 64.4 µM | OVCAR-8 35.6 µM | PC-3 42 µM | RPMI-8226 38.3 µM | RXF 393 > 100 µM | SF-295 17.7 µM | SK-MEL-28 41 µM | SK-MEL-2 34.8 µM | SN12C 26.1 µM | SNB-19 47 µM | SNB-75 13.9 µM | SR 54.6 µM | SW-620 57.9 µM | TK-10 > 100 µM | U-251 40.6 µM | UACC-257 36.6 µM | UACC-62 27 µM | UO-31 46 µM
